# In patent US8618114B2 (priority 2008, dated 2013):
# Columns and labels:
# male mice of BALB/c line [1] = assay: Mice Behavior in the Elevated Plus Maze; type: in vivo, mouse; settings: for anxiolytic activity in the elevated plus maze: tested compounds i.p., FIG. 14-16
# Experimental: Anxiolytic activity of compounds 1.1(11), 1.2.7(1), 1.2.6(1), 1.2.3(1), 1.2.11(1), 1.2.22(1), 1.2.22(18) in test “Mice Behavior in the Elevated Plus Maze”. The experiments were carried out in aged male mice of BALB/c line weighing about 25 g. The animals were housed 5-7 per cage with water and food available. None of the animals was acquainted with the experimental set-up before. Each experimental group included 8 animals.
# The procedure used was described earlier by Lister (Lister R. G. The use of a plus-maze to measure anxiety in the mouse. Psychopharmacology, 1987; 92:180-185). Plexiglass set-up consisted of two opened arms of 30×5 cm size and two closed arms of 30×5×15 cm size. Side arms were closed with transparent plexiglass and were connected with the central zone via a platform of 5×5 cm size. The opened arms, central platform and floor were made of black plexiglass. The set-up was mounted on a metallic base which was placed 38.5 cm above the floor level.
# The animals were injected intraperitoneally with placebo, Buspirone (5 mg/kg, 30 minutes before training), Lorazepam (0.05 mg/kg, 60 minutes before training) or with one of the tested compounds 1.1(11), 1.2.7(1), 1.2.6(1), 1.2.3(1), 1.2.11(1), 1.2.22(1), 1.2.22(18). Buspirone and Lorazepam were introduced in a maximal effective dose, at which side sedative effect and general decrease of exploratory activity (the number of arm entries during the test) were not observed yet.
# Each mouse was placed in the maze center with its head towards the opened arm. Over a period of 5 minutes the sequence and duration of arm entries were registered by means of a computer program. Criterion for entry is a location of all animal's paws inside the arm at the same time. The index of preference was calculated as a ratio of the time spent by the animal in the opened arms as well as the number of entries into the opened arms to the total time spent by it in the opened and closed arms or, respectively, to the whole number of entries to the arms of both types. The number of defecations left by a mouse was regarded as an additional parameter characterizing the anxiety state. Being in normal state the animals usually avoid open arms (the preference index is between 0.2 and 0.3).
# 5-HT6 receptor [2] = target: T1, 5-HT6 receptor (Homo sapiens (Human), UniProt P50406); assay: competitive radioligand binding ([3H] Lysergic acid diethylamide) to serotonin 5-HT6 receptors, HeLa cell membranes; settings: read-out: IC50, competitive assay of serotonin 5-HT6 receptor inhibition; displacement of 1.5 nM [3H] Lysergic acid diethylamide, 120 min at 37° C.
# T1 sequence (P50406 whole entry): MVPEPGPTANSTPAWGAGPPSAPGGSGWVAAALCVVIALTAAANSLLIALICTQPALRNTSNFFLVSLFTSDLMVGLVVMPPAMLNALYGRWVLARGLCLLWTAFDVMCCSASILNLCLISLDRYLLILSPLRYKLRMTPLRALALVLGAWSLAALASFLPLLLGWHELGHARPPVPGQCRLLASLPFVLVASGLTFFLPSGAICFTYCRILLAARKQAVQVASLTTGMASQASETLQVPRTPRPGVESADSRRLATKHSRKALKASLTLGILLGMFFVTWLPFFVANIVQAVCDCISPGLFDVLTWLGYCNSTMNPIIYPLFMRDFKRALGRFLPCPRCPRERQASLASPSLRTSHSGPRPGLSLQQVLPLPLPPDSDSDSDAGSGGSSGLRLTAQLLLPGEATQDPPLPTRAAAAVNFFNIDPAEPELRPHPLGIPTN
# Experimental: Determination of activity of the compounds of the general formula 1 in the setting of competitive binding to serotonin 5-HT6 receptors.
# Screening of the disclosed compounds for their potential ability to interact with serotonin 5-HT6 receptors was carried out by method of radioligand binding. For this purpose membrane species were prepared from expressing recombinant human 5-HT6 receptors HeLa cells by means of their homogenization in glass homogenizer with subsequent separation of plasmatic membranes from cell nucli, mitochondria's and cell wreckages by differential centrifugation. Determination of tested compounds binding to 5-HT6 receptors was carried out according to the method described in [Monsma F J Jr, Shen Y, Ward R P, Hamblin M W and Sibley D R, Cloning and expression of a novel serotonin receptor with high affinity for tricyclic psychotropic drugs. […] After incubation the samples were filtered in vacuo on glass-microfiber filters G/F (Millipor, USA), filters were washed three times with cold solution of the medium and radioactivity was measured by scintillation counter MicroBeta 340 (PerkinElmer, USA). Nonspecific binding which made up 30% of overall binding was determined by incubation of membrane preparations with radioligand in the presence of 5 μM Serotonin (5-HT). Methiothepin was used as positive control. Binding of the tested compounds to the receptor was determined by their ability to displace the radioligand and expressed in percent of displacement. The percent of displacement was calculated according to the following equation:
# [formula] wherein: TA—was overall radioactivity in the presence of radioligand only, CA—was radioactivity in the presence of radioligand and tested compound and NA—was radioactivity in the presence of radioligand and Serotonin (5 μM).
# 5-HT6 receptor [3] = target: T1, 5-HT6 receptor; assay: functional assay for serotonin 5-HT6 receptor inhibition (serotonin-induced intracellular cAMP, LANCE cAMP kit, HEK 293 cells); type: cell-based; settings: HEK 293 cells with expressed 5-HT6 receptor; reduction of serotonin-induced intracellular cAMP
# Experimental: Determination of antagonistic activity of compounds of the general formula 1 towards 5-HT6 receptors. Compounds of the general formula 1 were tested for their ability to prevent 5-HT6 receptors activation by serotonin. HEK 293 cells (cells of human embryo's kidney) with artificially expressed 5-HT6 receptor, activation of which by serotonin leads to increasing the concentration of intracellular cAMP, were used. The level of intracellular cAMP was determined using reagent kit LANCE cAMP (PerkinElmer) according to the method described by the manufacturer of the kit [http://las.perkinelmer.com/content/Manuals/MAN_LANCEcAMP384KitUser.pdf]. Effectiveness of the compounds was estimated by their ability to reduce the level of intracellular cAMP induced by serotonin. Table 4 presents IC50 values for the compounds of general formula 1 in the setting of functional assay for serotonin 5-HT6 receptor inhibition. The data given testify their moderate or high antagonistic activity.
# mice = assay: Passive avoidance in the shuttle chamber, amnesia caused by MK-801, mice; type: in vivo, mouse; settings: MK-801 0.1 mg/kg i.p., compounds injected 30 minutes before the test, FIG. 11-13
# Experimental: (§1) A shuttle chamber (Ugo Basile, Italy) that consisted of two sections was used. One section was white and lightened, the other one was dark. The sections were connected through a hole which could be overlapped by automatic vertical door. The floor of the dark section was made of transverse metal bars on which DC current impulses could be fed.
# (§2) On the first day of testing 30 minutes before training the animals were injected intraperitoneally with Scopolamine which causes disturbance of training (memory loss). The animals of the trial group were additionally administered with one of the tested compounds. The animals of the control group were injected with physiological solution. Each group consisted of 8 animals. The animals were placed in the light section, and latent period of the first entry into the dark chamber was registered. Then vertical door was closed and the animal was punished by 0.6 mA DC current for 3 seconds. After that the animal was taken back to its home cage. In 22-24 hours the same animal was placed again in the light section of the shuttle chamber and latent period of its first entry into the dark section, the total time of its stay in the light section and the number of entries into the dark section were registered. Each monitoring lasted for 5 minutes.
# 14.2.1. Passive Avoidance of mice in the Shuttle Chamber. The test was carried out as in example 14.1.1. […]
# male mice of SHK line = assay: Novel object recognition test, Scopolamine amnesia model; type: in vivo, mouse; settings: Scopolamine 1 mg/kg i.p.
# Experimental: 14.1.2. Novel object recognition test. The test was carried out in aged male mice of SHK line. […] A mouse was placed into the central chamber and allowed to explore the maze. The floor was cleaned after each animal. The sequence of chamber entries and duration of visits were registered by the observer. The test was ended after 13 entries into the dead-end chambers. Criterion for entry was a location of all animal's paws inside the chamber at the same time.
# During the training the animal was placed in the maze with one equiform bowl in each side chamber. In the course of testing (one hour after training) two opposite standing bowls were replaced by identical flasks, and the animal was allowed to explore the maze. The time spent by the animal in each side chamber was registered during the periods of training and testing. Index of novel object recognition was calculated as the ratio of time spent by the animal in the side chambers with novel objects to the total time spent by it in all side chambers.
# Mice of SHK line = assay: Prepulse inhibition of the startle response in mice (Apomorphine model); type: in vivo, mouse; settings: 1 mg/kg i.p. 60 minutes before the test; FIG. 17
# Experimental: Mice of SHK line weighing about 24-30 g were used in the test. The experiments were carried out during the light period of animal's diurnal. Apomorphine hydrochloride and Haloperidol were received from Sigma Chemicals Company, (USA). Apomorphine hydrochloride was dissolved in 0.1% solution of ascorbic acid prepared with sterilized water; it was introduced subcutaneously 15 minutes before the test. Haloperidol was dissolved in sterilized water using emulsifier Twin 80, it was introduced intraperitoneally 60 minutes before the test. Compounds 1.2.22(1), 1.2.22(18), 1.2.7(1) were dissolved in sterilized water and introduced intraperitoneally 60 minutes before the test. The injection volume was 10 ml/kg. 0.1%. Solution of ascorbic acid, prepared with sterilized water and Twin 80, was injected to control group of animals.
# The test instrument consisted of a chamber made of transparent plexiglass (manufacturer—Columbia Instruments Company, USA) and placed on the platform; the latter was lodged inside the sound insulating chamber. A high frequency sound column transmitting acoustic stimuluses was located 2 cm away from the platform. […] The level of background noise made up 65 dB. Each animal received 4 stimuli of single testing (pulse) stimulus of 50 ms duration and 105 dB or prepulsory stimulus (pre-pulse) of 20 ms duration and 85 dB, after which in 30 ms pulse stimulus of 50 ms duration and 105 dB followed. Time interval between repeated pulse or prepulse in combination with pulse stimuli made up 10 s. Inhibition of the startle in reply to prepulse-plus-pulse stimulus was calculated in percentage towards amplitude of startle in response to isolated pulse stimulus.
# rats = assay: Passive avoidance in the shuttle chamber, amnesia caused by MK-801, rats; type: in vivo, rat; settings: MK-801 0.1 mg/kg i.p., compounds injected 60 minutes before the test, FIG. 8-10
# male mice of BALB/c line [4] = assay: Passive avoidance in the shuttle chamber, Scopolamine amnesia model, mice; type: in vivo, mouse; settings: compounds injected 30 minutes before the test, read 24 hours after training, FIG. 4-6
# Experimental: (§3) 14.1.1. Passive Avoidance of mice in the Shuttle Chamber. The experiments were carried out in aged male mice of BALB/c line weighing 20-24 g or male rats weighing 200-250 g.
# as §1
# as §2, with “In 22-24 hours the same animal was placed again in the light section of the shuttle chamber and latent period of its first entry into the dark section, the total time of its stay in the light section and the number of entries into the dark section were registered. Each monitoring lasted for 5 minutes.” left out
# male rats = assay: Passive avoidance in the shuttle chamber, Scopolamine amnesia model, rats; type: in vivo, rat; settings: compounds injected 60 minutes before the test, read 24 hours after training, FIG. 1-3
# Experimental: as §3, §1
# as §2, with “In 22-24 hours the same animal was placed again in the light section of the shuttle chamber and latent period of its first entry into the dark section, the total time of its stay in the light section and the number of entries into the dark section were registered. Each monitoring lasted for 5 minutes.” left out
# [5] = compounds i.p. 60 minutes before training, FIG. 7
structure (smiles),measurement,setting,value
"CNc1nn2c(N)cc(C)nc2c1S(=O)(=O)c1ccccc1 [1.2.11(1), 7-amino-5-methyl-2-methylamino-3-phenylsulfonyl-pyrazolo[1,5-a]pyrimidine]",anxiolytic activity in the elevated plus maze,male mice of BALB/c line [1],anxiolytic activity analogous to the activity of control compounds
same,IC50,5-HT6 receptor [2],0.293 nM
same,IC50,5-HT6 receptor [3],12 nM
"CSc1nn2c(C)cc(CO)nc2c1S(=O)(=O)c1ccccc1 [1.1.7(1), 5-(hydroxymethyl)-7-methyl-2-methylsulfanyl-3-phenylsulfonyl-pyrazolo[1,5-a]pyrimidine]","effect on amnesia caused by MK-801 (latent period, light arm stay, dark arm entries)",mice,decrease amnesia caused by MK-801
same,IC50,5-HT6 receptor [3],177 nM
"O=C1Nc2ccc(Cl)cc2C(c2ccccc2Cl)=NC1O (centres unmarked) [Lorazepam, reference compound]",anxiolytic effect in the elevated plus maze,"male mice of BALB/c line [1]; Lorazepam 0.05 mg/kg i.p., 60 minutes before training",well-marked anxiolytic effect
"O=C1CC2(CCCC2)CC(=O)N1CCCCN1CCN(c2ncccn2)CC1 [Buspirone, reference compound]",anxiolytic effect in the elevated plus maze,"male mice of BALB/c line [1]; Buspirone 5 mg/kg i.p., 30 minutes before training",well-marked anxiolytic effect
"Cc1ccc2c(c1)c1c(n2CCc2ccc(C)nc2)CCN(C)C1 [Dimebon, reference compound]",prevention of Scopolamine-disturbed novel object recognition,male mice of SHK line; Dimebon 0.1 mg/kg i.p. 5 minutes before training,prevented
"Nc1c2c(nc3ccccc13)CCCC2 [Tacrine, reference compound]",prevention of Scopolamine-disturbed novel object recognition,male mice of SHK line; Tacrine 10 mg/kg i.p. 30 minutes before training,prevented
"CNc1nn2c(C)c(N)c(C)nc2c1S(=O)(=O)c1ccccc1.Cl [1.2.22(1), 6-amino-5,7-dimethyl-2-methylamino-3-phenylsulfonyl-pyrazolo[1,5-a]pyrimidine]",effect on Apomorphine-disturbed prepulse inhibition of startle,Mice of SHK line,prevented disturbance of prepulse inhibition of startle caused by Apomorphine
same,prevention of Scopolamine-disturbed novel object recognition,male mice of SHK line; [5],prevent memory impairment caused by Scopolamine
same,"effect on amnesia caused by MK-801 (latent period, light arm stay, dark arm entries)",rats,decrease amnesia caused by MK-801
Cc1cc(C)n2nc([S+](C)[O-])c(S(=O)(=O)c3ccccc3)c2n1 (centres unmarked) [1(1)],"effect on amnesia caused by MK-801 (latent period, light arm stay, dark arm entries)",mice,decrease amnesia caused by MK-801
same,"effect on amnesia caused by Scopolamine (latent period, light arm stay, dark arm entries)",male mice of BALB/c line [4],decrease amnesia
"O=C(CCCN1CCC(O)(c2ccc(Cl)cc2)CC1)c1ccc(F)cc1 [Haloperidol, reference compound]",effect on Apomorphine-disturbed prepulse inhibition of startle,Mice of SHK line,prevented disturbance of prepulse inhibition of startle caused by Apomorphine
CNc1nn2c(C)c(N(C)C)c(C)nc2c1S(=O)(=O)c1ccccc1 [1.2.22(18)],effect on Apomorphine-disturbed prepulse inhibition of startle,Mice of SHK line,prevented disturbance of prepulse inhibition of startle caused by Apomorphine
same,anxiolytic activity in the elevated plus maze,male mice of BALB/c line [1],anxiolytic activity analogous to the activity of control compounds
same,prevention of Scopolamine-disturbed novel object recognition,male mice of SHK line; [5],prevent memory impairment caused by Scopolamine
same,"effect on amnesia caused by MK-801 (latent period, light arm stay, dark arm entries)",rats,decrease amnesia caused by MK-801
same,"effect on amnesia caused by Scopolamine (latent period, light arm stay, dark arm entries)",male rats,decrease amnesia
